Structures are written as SMILES. Bounds are passed on as bounds.

As usually defined, the inhibition is how much of the control response was suppressed. Higher therefore signals a strong effect.

Holding throughout (settings): PC-3
The nature of assay [1]: Inhibition of PITSLRE in human PC3 cell lysates at 10 uM using desthiobiotin-tagged ATP probe AX9989 followed by trypsinization by LC/MS analysis. Format: cell-free.
Assay [2] concerns the target c-Jun N-terminal kinase, JNK (Homo sapiens) (UniProt P45983+P53779+P45984). Description: Inhibition of JNK1/JNK2/JNK3 in human PC3 cell lysates at 10 uM using desthiobiotin-tagged ATP probe AX9989 followed by trypsinization by LC/MS analysis. Format: protein assay.
Assay [3] concerns the target Interleukin-1 receptor-associated kinase 1 (Homo sapiens) (UniProt P51617). Description: Inhibition of IRAK1 in human PC3 cell lysates at 10 uM using desthiobiotin-tagged ATP probe AX9989 followed by trypsinization by LC/MS analysis.
Assay [4] concerns the target Interferon-induced, double-stranded RNA-activated protein kinase (Homo sapiens) (UniProt P19525). Description: Inhibition of PKR in human PC3 cell lysates at 10 uM using desthiobiotin-tagged ATP probe AX9989 followed by trypsinization by LC/MS analysis.
For assay [5], the target named is Cyclin-dependent kinase 2 (Homo sapiens) (UniProt P24941). Description: Inhibition of CDK2 in human PC3 cell lysates at 10 uM using desthiobiotin-tagged ATP probe AX9989 followed by trypsinization by LC/MS analysis.
The target of assay [6] is T1, Acylglycerol kinase, mitochondrial (Homo sapiens) (UniProt Q53H12).
T1 sequence (whole entry): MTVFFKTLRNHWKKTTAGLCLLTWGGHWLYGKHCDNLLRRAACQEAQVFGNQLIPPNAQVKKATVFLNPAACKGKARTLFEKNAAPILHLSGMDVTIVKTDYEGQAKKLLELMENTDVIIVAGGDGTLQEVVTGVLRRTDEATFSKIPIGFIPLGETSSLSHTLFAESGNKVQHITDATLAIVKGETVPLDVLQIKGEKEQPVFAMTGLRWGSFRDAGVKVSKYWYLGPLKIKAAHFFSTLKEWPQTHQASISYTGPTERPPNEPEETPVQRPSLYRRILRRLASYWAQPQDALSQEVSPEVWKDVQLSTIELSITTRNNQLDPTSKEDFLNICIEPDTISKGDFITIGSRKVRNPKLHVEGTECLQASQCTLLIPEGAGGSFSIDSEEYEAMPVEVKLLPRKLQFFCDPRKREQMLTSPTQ
Description: Inhibition of AGK in human PC3 cell lysates at 10 uM using desthiobiotin-tagged ATP probe AX9989 followed by trypsinization by LC/MS analysis.

Assay [7] concerns the target Ribosomal protein S6 kinase alpha-3 (Homo sapiens) (UniProt P51812). Description: Inhibition of RSK2 domain2 in human PC3 cell lysates at 10 uM using desthiobiotin-tagged ATP probe AX9989 followed by trypsinization by LC/MS analysis.
For assay [8], the target named is Cyclin-dependent kinase 16 (Homo sapiens) (UniProt Q00536). Description: Inhibition of PCTAIRE1 in human PC3 cell lysates at 10 uM using desthiobiotin-tagged ATP probe AX9989 followed by trypsinization by LC/MS analysis.
Assay [9] deals with T2, MAP/microtubule affinity-regulating kinase 4 (Homo sapiens) (UniProt Q96L34).
T2 sequence (whole entry): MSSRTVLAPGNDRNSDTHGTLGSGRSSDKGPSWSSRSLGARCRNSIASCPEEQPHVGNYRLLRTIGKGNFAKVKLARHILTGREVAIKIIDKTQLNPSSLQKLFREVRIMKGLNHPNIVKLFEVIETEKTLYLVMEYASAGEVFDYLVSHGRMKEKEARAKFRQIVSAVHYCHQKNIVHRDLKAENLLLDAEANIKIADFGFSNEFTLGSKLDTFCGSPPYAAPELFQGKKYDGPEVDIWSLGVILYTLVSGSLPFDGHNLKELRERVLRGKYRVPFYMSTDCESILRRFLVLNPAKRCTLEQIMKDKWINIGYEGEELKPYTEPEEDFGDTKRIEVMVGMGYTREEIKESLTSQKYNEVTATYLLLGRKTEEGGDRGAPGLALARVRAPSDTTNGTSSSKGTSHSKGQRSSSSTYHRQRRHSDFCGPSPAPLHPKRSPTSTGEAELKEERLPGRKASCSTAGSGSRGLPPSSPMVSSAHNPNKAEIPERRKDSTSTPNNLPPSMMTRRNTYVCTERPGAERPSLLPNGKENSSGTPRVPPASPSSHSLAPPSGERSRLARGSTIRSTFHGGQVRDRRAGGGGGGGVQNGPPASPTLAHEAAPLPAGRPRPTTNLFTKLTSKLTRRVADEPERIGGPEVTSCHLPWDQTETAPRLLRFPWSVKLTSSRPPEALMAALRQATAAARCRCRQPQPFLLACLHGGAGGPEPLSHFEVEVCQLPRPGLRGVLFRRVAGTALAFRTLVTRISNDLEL
Description: Inhibition of MARK4 in human PC3 cell lysates at 10 uM using desthiobiotin-tagged ATP probe AX9989 followed by trypsinization by LC/MS analysis.

In assay [10] the target is Dual specificity mitogen-activated protein kinase kinase 2 (Homo sapiens) (UniProt P36507). Description: Inhibition of MAP2K2 in human PC3 cell lysates at 10 uM using desthiobiotin-tagged ATP probe AX9989 followed by trypsinization by LC/MS analysis.
In assay [11] the target is T3, Serine/threonine-protein kinase 4 (Homo sapiens) (UniProt Q13043).
T3 sequence (whole entry): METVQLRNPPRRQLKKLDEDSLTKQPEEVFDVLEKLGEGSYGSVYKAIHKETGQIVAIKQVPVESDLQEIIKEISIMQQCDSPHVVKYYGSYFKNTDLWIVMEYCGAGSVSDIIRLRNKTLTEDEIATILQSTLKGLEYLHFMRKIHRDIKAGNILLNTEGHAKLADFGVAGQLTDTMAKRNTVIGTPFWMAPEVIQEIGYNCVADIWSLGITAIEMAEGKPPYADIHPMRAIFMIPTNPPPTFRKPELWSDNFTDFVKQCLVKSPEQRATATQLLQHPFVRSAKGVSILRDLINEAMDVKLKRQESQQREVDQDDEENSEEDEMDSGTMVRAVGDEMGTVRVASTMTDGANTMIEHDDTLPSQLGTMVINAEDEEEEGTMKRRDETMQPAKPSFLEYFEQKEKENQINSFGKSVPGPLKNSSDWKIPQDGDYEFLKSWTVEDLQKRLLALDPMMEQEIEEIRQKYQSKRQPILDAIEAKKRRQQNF
Description: Inhibition of MST1 in human PC3 cell lysates at 10 uM using desthiobiotin-tagged ATP probe AX9989 followed by trypsinization by LC/MS analysis.

Interleukin-1 receptor-associated kinase 1 (Homo sapiens), sequence (P51617 whole entry, looked up): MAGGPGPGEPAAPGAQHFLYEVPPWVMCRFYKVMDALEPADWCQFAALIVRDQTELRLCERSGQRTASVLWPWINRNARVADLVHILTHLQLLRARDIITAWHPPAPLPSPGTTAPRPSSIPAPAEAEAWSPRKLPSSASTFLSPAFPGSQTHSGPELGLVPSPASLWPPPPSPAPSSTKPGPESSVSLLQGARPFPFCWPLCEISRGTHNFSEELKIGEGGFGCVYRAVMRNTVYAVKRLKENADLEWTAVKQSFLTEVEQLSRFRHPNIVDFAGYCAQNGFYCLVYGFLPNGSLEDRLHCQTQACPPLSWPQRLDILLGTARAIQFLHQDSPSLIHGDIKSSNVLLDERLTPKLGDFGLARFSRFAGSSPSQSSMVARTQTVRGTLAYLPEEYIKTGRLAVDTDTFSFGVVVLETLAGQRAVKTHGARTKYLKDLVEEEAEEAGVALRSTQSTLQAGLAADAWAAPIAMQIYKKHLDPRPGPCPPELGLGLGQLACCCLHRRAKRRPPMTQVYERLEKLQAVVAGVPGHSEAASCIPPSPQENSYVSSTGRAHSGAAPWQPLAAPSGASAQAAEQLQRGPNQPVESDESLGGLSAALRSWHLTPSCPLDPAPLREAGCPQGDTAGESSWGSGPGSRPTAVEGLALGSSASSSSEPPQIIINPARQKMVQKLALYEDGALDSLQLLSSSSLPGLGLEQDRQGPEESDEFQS
Ribosomal protein S6 kinase alpha-3 (Homo sapiens), sequence (P51812 whole entry, the tested form may be a part): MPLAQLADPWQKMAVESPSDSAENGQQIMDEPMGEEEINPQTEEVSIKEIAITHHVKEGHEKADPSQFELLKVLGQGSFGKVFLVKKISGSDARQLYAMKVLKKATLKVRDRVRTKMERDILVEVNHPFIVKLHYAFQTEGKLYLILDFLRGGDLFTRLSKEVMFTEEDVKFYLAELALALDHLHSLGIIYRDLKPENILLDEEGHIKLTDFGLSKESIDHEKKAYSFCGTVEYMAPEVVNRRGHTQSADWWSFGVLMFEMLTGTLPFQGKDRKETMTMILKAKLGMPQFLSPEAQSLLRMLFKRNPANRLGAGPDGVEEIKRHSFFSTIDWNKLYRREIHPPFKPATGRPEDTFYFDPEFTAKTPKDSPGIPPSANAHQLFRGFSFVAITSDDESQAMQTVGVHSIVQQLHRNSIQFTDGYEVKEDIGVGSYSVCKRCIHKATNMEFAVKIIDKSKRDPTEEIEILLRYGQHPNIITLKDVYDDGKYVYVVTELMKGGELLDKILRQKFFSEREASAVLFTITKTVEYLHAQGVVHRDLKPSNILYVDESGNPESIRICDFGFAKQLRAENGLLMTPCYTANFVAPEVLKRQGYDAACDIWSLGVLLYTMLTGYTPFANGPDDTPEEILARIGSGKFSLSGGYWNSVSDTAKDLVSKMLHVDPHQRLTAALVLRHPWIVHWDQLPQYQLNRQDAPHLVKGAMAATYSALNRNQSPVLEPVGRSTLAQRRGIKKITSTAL
Interferon-induced, double-stranded RNA-activated protein kinase (Homo sapiens), sequence (P19525 whole entry): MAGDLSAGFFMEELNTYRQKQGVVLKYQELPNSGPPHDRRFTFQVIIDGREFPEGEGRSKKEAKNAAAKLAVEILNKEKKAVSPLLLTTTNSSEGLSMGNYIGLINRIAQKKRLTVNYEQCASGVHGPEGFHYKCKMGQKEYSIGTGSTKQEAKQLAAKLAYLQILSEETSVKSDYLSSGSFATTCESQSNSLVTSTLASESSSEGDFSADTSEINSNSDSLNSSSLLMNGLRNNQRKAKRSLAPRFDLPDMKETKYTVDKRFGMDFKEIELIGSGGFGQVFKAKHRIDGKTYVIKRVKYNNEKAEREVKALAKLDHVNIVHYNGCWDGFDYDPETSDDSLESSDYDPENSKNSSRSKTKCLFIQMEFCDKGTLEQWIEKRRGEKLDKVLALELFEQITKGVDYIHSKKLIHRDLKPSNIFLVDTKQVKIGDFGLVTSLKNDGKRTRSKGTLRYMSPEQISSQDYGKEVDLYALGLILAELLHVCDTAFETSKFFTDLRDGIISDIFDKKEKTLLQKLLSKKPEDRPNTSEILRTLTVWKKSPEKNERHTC
Cyclin-dependent kinase 16 (Homo sapiens), sequence (Q00536 whole entry): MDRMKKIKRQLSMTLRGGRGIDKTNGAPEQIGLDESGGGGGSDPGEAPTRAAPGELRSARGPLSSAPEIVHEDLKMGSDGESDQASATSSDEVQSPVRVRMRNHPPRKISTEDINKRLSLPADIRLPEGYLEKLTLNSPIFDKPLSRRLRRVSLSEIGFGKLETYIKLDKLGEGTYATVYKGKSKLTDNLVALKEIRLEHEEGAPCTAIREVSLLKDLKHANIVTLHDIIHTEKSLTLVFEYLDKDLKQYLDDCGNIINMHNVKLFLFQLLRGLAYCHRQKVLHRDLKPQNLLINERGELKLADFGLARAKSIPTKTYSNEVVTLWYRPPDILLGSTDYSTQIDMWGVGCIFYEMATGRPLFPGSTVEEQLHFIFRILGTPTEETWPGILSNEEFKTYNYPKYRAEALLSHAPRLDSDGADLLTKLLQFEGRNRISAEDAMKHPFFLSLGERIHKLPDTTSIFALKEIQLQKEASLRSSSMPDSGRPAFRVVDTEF
Dual specificity mitogen-activated protein kinase kinase 2 (Homo sapiens), sequence (P36507 whole entry): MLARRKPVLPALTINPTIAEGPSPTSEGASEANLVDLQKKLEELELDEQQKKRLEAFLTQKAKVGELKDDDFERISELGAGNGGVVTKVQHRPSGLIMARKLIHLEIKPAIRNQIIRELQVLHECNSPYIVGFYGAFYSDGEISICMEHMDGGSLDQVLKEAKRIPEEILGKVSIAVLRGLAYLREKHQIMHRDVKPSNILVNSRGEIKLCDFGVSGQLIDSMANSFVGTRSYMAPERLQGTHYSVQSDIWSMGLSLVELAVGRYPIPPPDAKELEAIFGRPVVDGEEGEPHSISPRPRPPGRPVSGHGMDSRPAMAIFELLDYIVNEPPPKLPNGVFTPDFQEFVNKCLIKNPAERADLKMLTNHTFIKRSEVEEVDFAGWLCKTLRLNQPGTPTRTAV

Regarding `O=C(NC1(Cc2ccc(F)cc2)CC1)c1ccc2nc(N[C@H]3CC[C@H](O)CC3)c3nccn3c2c1`, the inhibition is under 35% in [1]; 99.5% in assay [2]; under 35% in assay [3]; under 35% in assay [4]; under 35% in assay [5]; under 35% in [6]. For the same compound, the inhibition in assay [7], in assay [8], in assay [9], in assay [10] and in assay [11] was under 35% each time.

Values taken from ChEMBL document CHEMBL2417377, “Hit-to-lead optimization and kinase selectivity of imidazo[1,2-a]quinoxalin-4-amine derived JNK1 inhibitors” (Bioorg Med Chem Lett, 2013).
